# From ChEMBL document CHEMBL4819060, “Design, synthesis and assessment of new series of quinazolinone derivatives as EGFR inhibitors along with their cytotoxic evaluation against MCF7 and A549 cancer cell lines” (Bioorg Med Chem Lett, 2021)
# Legend:
# [1] = system: MCF7; experiment: cells; format: functional, cell-based; settings: Homo sapiens
# Description: Cytotoxicity against human MCF7 cells incubated for 2 to 4 hrs by MTT assay
# [2] = system: A549; experiment: Cytotoxicity against human A549 cells incubated for 2 to 4 hrs by MTT assay; format: functional, cell-based
# [3] = molecular target: Epidermal growth factor receptor (Homo sapiens, UniProt P00533)
# Chain of Epidermal growth factor receptor (P00533 whole entry): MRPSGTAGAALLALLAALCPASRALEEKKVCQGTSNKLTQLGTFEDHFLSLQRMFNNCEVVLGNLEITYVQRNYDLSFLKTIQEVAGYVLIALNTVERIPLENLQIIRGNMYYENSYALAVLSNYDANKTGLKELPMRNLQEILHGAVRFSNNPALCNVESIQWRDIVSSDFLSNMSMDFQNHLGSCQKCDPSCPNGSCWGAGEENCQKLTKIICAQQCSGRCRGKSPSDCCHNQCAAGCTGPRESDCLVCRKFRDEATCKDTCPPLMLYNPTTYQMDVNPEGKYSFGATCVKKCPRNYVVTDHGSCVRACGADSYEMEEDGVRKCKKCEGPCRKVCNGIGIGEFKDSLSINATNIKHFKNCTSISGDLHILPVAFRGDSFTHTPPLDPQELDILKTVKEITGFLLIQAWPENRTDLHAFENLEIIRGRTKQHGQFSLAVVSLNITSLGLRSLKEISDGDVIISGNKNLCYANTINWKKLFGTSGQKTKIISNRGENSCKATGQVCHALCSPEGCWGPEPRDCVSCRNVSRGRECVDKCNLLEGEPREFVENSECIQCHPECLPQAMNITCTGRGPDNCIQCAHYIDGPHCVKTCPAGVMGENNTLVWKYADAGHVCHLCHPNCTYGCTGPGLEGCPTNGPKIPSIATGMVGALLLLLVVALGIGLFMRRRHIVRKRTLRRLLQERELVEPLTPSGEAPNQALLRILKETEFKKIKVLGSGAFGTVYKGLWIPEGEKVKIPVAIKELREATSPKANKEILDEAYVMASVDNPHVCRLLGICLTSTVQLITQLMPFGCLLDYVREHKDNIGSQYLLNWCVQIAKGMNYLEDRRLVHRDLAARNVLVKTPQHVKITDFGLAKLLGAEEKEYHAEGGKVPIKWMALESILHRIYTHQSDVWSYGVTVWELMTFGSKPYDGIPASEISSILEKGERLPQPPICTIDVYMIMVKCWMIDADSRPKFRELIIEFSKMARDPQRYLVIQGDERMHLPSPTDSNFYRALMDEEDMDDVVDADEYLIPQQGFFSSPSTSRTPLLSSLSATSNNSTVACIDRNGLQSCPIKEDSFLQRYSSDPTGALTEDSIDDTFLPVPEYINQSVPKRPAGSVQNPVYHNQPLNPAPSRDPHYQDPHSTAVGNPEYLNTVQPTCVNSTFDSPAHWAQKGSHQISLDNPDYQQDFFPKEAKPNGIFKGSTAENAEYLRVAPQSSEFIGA
# Description: Inhibition of EGFR (unknown origin)
# [4] = cells; format: ADME, cell-based; settings: Homo sapiens, PCS-800-011
# Description: Cytotoxicity against human PCS-800-011 cells
# [5] = system: MCF7; experiment: Induction of apoptosis in human MCF7 cells assessed as late apoptotic cells measured after 24 hrs by Annexin V-FITC/propidium iodide staining based flow cytometry assay (reference value: 0.12%); format: functional
# [6] = system: MCF7; experiment: Induction of cell cycle arrest in human MCF7 cells assessed as accumulation of cells at G0/G1 phase at 1.74 uM after 24 hrs by propidium iodide staining-based flow cytometric analysis (reference value: 52.94%); format: functional
# [7] = system: MCF7; experiment: Induction of cell cycle arrest in human MCF7 cells assessed as accumulation of cells at Pre-G1 phase at 1.74 uM after 24 hrs by propidium iodide staining-based flow cytometric analysis (reference value: 1.63%); format: functional
# [8] = system: MCF7; experiment: Induction of apoptosis in human MCF7 cells assessed as total apoptotic cells measured after 24 hrs by Annexin V-FITC/propidium iodide staining based flow cytometry assay (reference value: 1.63%); format: functional
# [9] = system: MCF7; experiment: Induction of cell cycle arrest in human MCF7 cells assessed as accumulation of cells at G2/M phase at 1.74 uM after 24 hrs by propidium iodide staining-based flow cytometric analysis (reference value: 10.49%); format: functional
# [10] = system: MCF7; experiment: Induction of cell cycle arrest in human MCF7 cells assessed as accumulation of cells at S phase at 1.74 uM after 24 hrs by propidium iodide staining-based flow cytometric analysis (reference value: 36.57%); format: functional
# [11] = system: MCF7; experiment: Induction of apoptosis in human MCF7 cells assessed as early apoptotic cells measured after 24 hrs by Annexin V-FITC/propidium iodide staining based flow cytometry assay (reference value: 0.32%); format: functional
# [12] = system: MCF7; experiment: Induction of apoptosis in human MCF7 cells assessed as necrotic cells measured after 24 hrs by Annexin V-FITC/propidium iodide staining based flow cytometry assay (reference value: 1.19%); format: functional
# [13] = system: MCF7; experiment: Induction of cell cycle arrest in human MCF7 cells assessed as accumulation of cells at Pre-G1 phase at 4.05 uM after 24 hrs by propidium iodide staining-based flow cytometric analysis (reference value: 1.63%); format: functional
# [14] = system: MCF7; experiment: Induction of cell cycle arrest in human MCF7 cells assessed as accumulation of cells at G0/G1 phase at 4.05 uM after 24 hrs by propidium iodide staining-based flow cytometric analysis (reference value: 52.94%); format: functional
# [15] = system: MCF7; experiment: Induction of cell cycle arrest in human MCF7 cells assessed as accumulation of cells at S phase at 4.05 uM after 24 hrs by propidium iodide staining-based flow cytometric analysis (reference value: 36.57%); format: functional
# [16] = system: MCF7; experiment: Induction of cell cycle arrest in human MCF7 cells assessed as accumulation of cells at G2/M phase at 4.05 uM after 24 hrs by propidium iodide staining-based flow cytometric analysis (reference value: 10.49%); format: functional
IC50 [1] [µM],IC50 [3] [µM],IC50 [4] [µM],SMILES,IC50 [2] [µM],further results
4.41,–,–,O=C(CNc1ccc(Cl)cc1Cl)Nn1c(-c2ccccc2)nc2ccccc2c1=O,187,–
–,0.00039,–,CN(/N=N\c1ccc2ncnc(Nc3cccc(Cl)c3)c2c1)C(=O)OCCl,–,–
7.49,0.178,17.3,O=C1N=C(Nn2c(-c3ccccc3)nc3ccccc3c2=O)S/C1=C/c1ccc(O)cc1O,3.22,–
1.74,0.0811,51.2,O=C(CNc1ccc(Cl)cc1)Nn1c(-c2ccccc2)nc2ccccc2c1=O,7.29,Activity [5]: 23.65%; Activity [6]: 34.32%; Activity [7]: 37.24%; Activity [8]: 37.24%; Activity [9]: 36.21%; Activity [10]: 29.47%; Activity [11]: 2.56%; Activity [12]: 11.03%
15.2,–,–,O=C(CNc1ccccc1)Nn1c(-c2ccccc2)nc2ccccc2c1=O,13.3,–
2.42,0.143,36.9,CCc1ccc(NCC(=O)Nn2c(-c3ccccc3)nc3ccccc3c2=O)cc1,2.1,–
15.1,–,–,O=C(CNc1ccc(Br)cc1)Nn1c(-c2ccccc2)nc2ccccc2c1=O,25,–

# The remaining lines, values behind:
SMILES,IC50 [1] [µM],IC50 [3] [µM],IC50 [4] [µM],IC50 [2] [µM],further results
COc1ccc(/C=C2/SC(Nn3c(-c4ccccc4)nc4ccccc4c3=O)=NC2=O)cc1OC,1,–,–,44.7,–
CN(C(=O)NCCCl)c1ccc2ncnc(Nc3cccc(Cl)c3)c2c1,–,0.081,–,–,–
O=C1N=C(Nn2c(-c3ccccc3)nc3ccccc3c2=O)S/C1=C/c1ccc(Br)cc1,2.3,–,–,21.3,–
O=C1N=C(Nn2c(-c3ccccc3)nc3ccccc3c2=O)S/C1=C/c1ccccc1,4.05,0.0656,44.3,0.72,Activity [5]: 12.16%; Activity [13]: 26.38%; Activity [14]: 42.95%; Activity [8]: 26.38%; Activity [15]: 27.88%; Activity [11]: 4.95%; Activity [12]: 9.27%; Activity [16]: 29.17%
COc1ccc(/C=C2/SC(Nn3c(-c4ccccc4)nc4ccccc4c3=O)=NC2=O)cc1,3.76,0.136,31.4,5.31,–
COc1ccc(-c2coc3cc(OCC(=O)N/C=C\c4ccc(O)cc4)ccc3c2=O)cc1,–,0.0331,–,–,–
